Consider 3 molecules from US20180021288A1, “Neuroprotection in Demyelinating Diseases” (Biogen MA Inc., priority 2010, published 2018).

In series [1] the test system is MOG-EAE. Kind of series: DMF/GA co-therapy during short term (acute) course of MOG-EAE (Examples 3 and 8). Format: in vivo, mice. The following applies: for Incidence: pooled data from three experiments; for macrophage/microglia in EAE lesions: day 26 p.i., FIG. 13. On the procedure:
The treatment groups were as follows:
1) Mice immunized with 200 μg MOG/CFA (complete Freund's adjuvant)+200 ng PTX (pertussis toxin)+vehicle (methocel).
2) Mice immunized with 200 μg MOG/CFA and 50 μg GA+vehicle.
In the acute disease phase (day 26 or day 18 p.i., respectively), parameters of inflammation as well as CNS tissue integrity were analyzed. To this end, 12 week wild-type or C57BL/6 mice were actively immunized with […] of MOG peptide 35-55 and pertussis toxin. On day 18 or 26 p.i., histochemistry was performed to identify T cells (CD3 immunohistochemistry), macrophages/microglia (Mac-3), demyelination (Luxol Fast Blue staining), and axonal loss (Bielschowsky silver impregnation). Histological changes were quantified by a blinded observer counting six visual fields on spinal cord cross sections comprising cervical, thoracic and lumbar spinal cord. Statistical evaluations were performed by Kruskal-Wallis test or t-test. ** p<0.01; *** p<0.001.

The test system of series [2] is MOG-EAE. The following applies: in vivo; cited from earlier work.
Series [3] has as its system MOG-EAE. Kind of series: DMF/GA co-therapy during chronic MOG-EAE (Example 3). Format: in vivo, mice. The conditions noted are these: for mean clinical EAE score during the chronic phase / onset of EAE symptoms: FIG. 4; for infiltration by T cells / number of infiltrating macrophages: chronic MOG-EAE; for infiltration by T cells: FIG. 7; for number of infiltrating macrophages: FIG. 8; for axonal loss and destruction: chronic phase, FIG. 9. On the procedure: The treatment groups were as follows: 1) Mice immunized with 200 μg MOG/CFA (complete Freund's adjuvant)+200 ng PTX (pertussis toxin)+vehicle (methocel). 2) Mice immunized with 200 μg MOG/CFA and 50 μg GA+vehicle. […] Long term experiment: additional boost on day 28 p.i.

The subject of series [4] is MOG-EAE. The conditions noted are these: 100 or 500 mcg glatiramer acetate co-injected with MOG antigen; FIG. 3. An excerpt: In this experiment mice were co-injected with glatiramer acetate and the MOG antigen. Specifically, a control group received MOG alone, while two experimental groups received doses of 100 or 500 mcg glatiramer acetate.
Series [5] concerns MOG-EAE. As to the kind of experiment: Efficacy of DMF in chronic MOG-EAE (Example 1). Format: in vivo, mouse. An excerpt:
See also, Schilling et al., “Fumaric Acid Esters Are Effective in Chronic Experimental Autoimmune Encephalomyelitis and Supress Macrophage Infiltration,” Clinical and Experimental Immunology, Vol. 145, No. 1, pp. 101-107 (2006).

Assay in series [6]: not given
This is another data set of the same source.

Series [7] relates to MOG-EAE. As to the kind of experiment: DMF/IFN-beta co-therapy in MOG-EAE (Examples 4 and 8). The conditions noted are these: DMF 15 mg/kg p.o.; for Incidence: FIG. 11, IFN-beta 10,000 U s.c. e.o.d; for mean clinical EAE score / clinical disease course: short-term course, IFN-beta 10,000 U s.c., FIG. 11, FIG. 15. The class given is in vivo, mice.
Setting [8] is: FIG. 4, single experiment, GA 50 μg, DMF 15 mg/kgBW.
[9] abbreviates: FIG. 5, pooled data from two experiments (n=12 per group).
The mark [10] stands for this setting: GA study, healthy volunteers, DMF 240 mg tid.
[11] abbreviates: IFN-beta-1a study, healthy volunteers, DMF 240 mg tid.

Counter-ions that a name gives are not always drawn. Like-named read-outs stand apart in the source and are kept apart here.

On to “L-glutamic acid polymer with L-alanine, L-lysine and L-tyrosine, acetate (salt) [GA]”, for which the Incidence in the series with MOG-EAE [1] (short term course) is recorded as 13/18. For the same molecule, the “prevention of clinical and histological signs of EAE in combination with atorvastatin” value in the series on MOG-EAE [2] was “synergize with atorvastatin”. In the series on MOG-EAE [3] (setting [8]), the Incidence is 6/6. Also, in the series on MOG-EAE [3] (GA 50 μg, DMF 15 mg/kgBW), the “mean clinical EAE score during the chronic phase” value is on record as “intermediate effect” and the “onset of EAE symptoms” value is listed as “delayed”. For the same molecule, the Incidence in the series on MOG-EAE [3] (setting [9]) is 11/12. In addition, in the series on MOG-EAE [3], the “infiltration by T cells” value is on record as “neither GA nor DMF reduces”; the “number of infiltrating macrophages” value is listed as “neither GA nor DMF alone does so”; the “axonal loss and destruction” value was “reduce axonal loss and destruction”. In addition, the “infiltrates (inflammatory index, HE staining of spinal cords)” value in the series with MOG-EAE [3] (chronic disease phase, FIG. 6) is “reduces infiltrates”. In the series on MOG-EAE [4], the mean clinical score entry is on record as “reduced the mean clinical score of the 100 or 500 mcg groups in a dose-dependent manner”.

Take `COC(=O)/C=C/C(=O)OC` [DMF, Dimethyl fumarate]: the “macrophage/microglia in EAE lesions” value in the series with MOG-EAE [1] was “reduction of macrophage/microglia”. For the same molecule, the “macrophage/microglia in EAE lesions” value in the series on MOG-EAE [1] (listed as DMF alone) is “efficiently reduces”. Further, in the series with MOG-EAE [1] (short term course), the Incidence is given as 11/18. Besides, in the series on MOG-EAE [1] (short term course, FIG. 10A and 10B), the “mean clinical EAE score / clinical disease course” value is given as “greater than that of GA”. For the same molecule, for the setting “GA study”, the “most common adverse events” value is given as “flushing” and the new safety signals entry was “no new safety signals”. In addition, under setting [10], the “Any AE” value amounted to 84%, the Diarrhea is 8%, the Flushing was determined as 76% and the Headache was found to be 12%. Besides, under setting [10], the Nausea was found to be 8%, the Paresthesia worked out at 32% and the Pruritus was 28%. Under “GA study, mild erythematous facial nodule (DMF alone), mild nausea (DMF+GA)”, the “subjects discontinued due to adverse event” value is “one”. Under “human, in vivo”, this molecule showed an Influenza-like illness of 0%. For the same molecule, the mean clinical score result in the series with MOG-EAE [5] (DMF 15 mg/kg twice daily via oral gavage, FIG. 1) is “reduced”. Besides, in the series on MOG-EAE [5] (mouse, in vivo), the T-cell infiltration result is “without suppressing”, the “efficacy in chronic MOG-EAE” value is listed as “effective” and the macrophage infiltration result is “suppress”. Besides, the demyelination entry in the series on MOG-EAE [5] (spinal cord tissue, FIG. 2B) is recorded as “reduced”. The Incidence with MOG-EAE [3] (setting [8]) is reported as 6/6. In the series on MOG-EAE [3] (GA 50 μg, DMF 15 mg/kgBW), the “mean clinical EAE score during the chronic phase” value is recorded as “little if any effect” and the “onset of EAE symptoms” value is “delayed”. Moreover, the Incidence in the series on MOG-EAE [3] (setting [9]) is 9/12. Moreover, in the series on MOG-EAE [3], the “infiltration by T cells” value is “neither GA nor DMF reduces”; the “number of infiltrating macrophages” value is reported as “neither GA nor DMF alone does so”; the “axonal loss and destruction” value is “reduce axonal loss and destruction”. Further, in series [6] (IFN-beta-1a study), the “most common adverse events” value was “flushing” and the new safety signals result is listed as “no new safety signals”. Also, in series [6] (setting [11]), the “Any AE” value is 71%, the Diarrhea is recorded as 0%, the Flushing is listed as 50% and the Headache was found to be 13%. In series [6] (setting [11]), this molecule returned a Nausea of 4%, a Paresthesia of 21% and a Pruritus of 4%. In series [6] (human, in vivo), this molecule gave an Influenza-like illness of 0%. In addition, in the series on MOG-EAE [7], the Incidence is recorded as 6/6 and the “mean clinical EAE score / clinical disease course” value is recorded as “exacerbated the EAE compared to the methocel controls”.

B1: IFN-beta: murine interferon beta, 10,000 U s.c. (protein, UniProt P01575 22-182, looked up)
Interferon beta: INYKQLQLQERTNIRKCQELLEQLNGKINLTYRADFKIPMEMTEKMQKSYTAFAIQEMLQNVFLVFRNNFSSTGWNETIVVRLLDELHQQTVFLKTVLEEKQEERLTWEMSSTALHLKSYYWRVQRYLKLMKYNSYAWMVVRAEIFRNFLIIRRLTRNFQN
As for B1, in the series with MOG-EAE [7], the Incidence is reported as 5/6 and the “mean clinical EAE score / clinical disease course” value is “exacerbated the EAE compared to the methocel controls”.
